# Experimental data reported in patent US9120762B2, “Salts of bicyclo-substituted pyrazolon azo derivatives, preparation method and use thereof” (Jiangsu Hengrui Medicine Co., Ltd., priority 2009, dated 2015).
# Read-outs that look alike come from different tables or passages of the source.
# What was measured:
# [1] = Hygroscopicity assay, standing 48 hours at 25° C., humidity 79%; format: physicochemical; details: for Percentage of weight gain / hygroscopicity: 48 hours, 25° C., humidity 79%
# Procedure: The hygroscopicity test of the compounds of the present disclosure after standing for 48 hours
# 1. The arid glass weighing bottle with a tap (external diameter is 50 mm, the height is 15 mm) was placed at 25° C.±1° C. suitably in a thermostatic drier (saturated ammonium sulfate solution was laid in the lower part, humidity was 79%) the day before the assay, precise weight was measured as (m1);
# 2. The above weighing bottle was covered with the compounds of the invention (about 1 g), and the thickness of the compounds were generally 1 mm, precise weight was measured as (m2);
# 3. The mouth of the weighing bottle was kept open and placed with the tap in the above conditions with constant temperature and humidity for 48 hours;
# 4. Put the tap back on the bottle, precise weight was measured as (m3)
# The degree of hygroscopicity was defined as follows: […]
# Deliquesce: turning into liquid by absorbing enough moisture.
# High hygroscopicity: the percentage of hygroscopicity weight gain is not less than 15%.
# Hygroscopicity: the percentage of hygroscopicity weight gain is less than 15%, but not less than 2%.
# Sparing hygroscopicity: the percentage of hygroscopicity weight gain is less than 2%, but not less than 0.2%.
# No hygroscopicity or almost no hygroscopicity: the percentage of hygroscopicity weight gain is less than 0.2%.
# human TPOR = target: T1, human TPOR (Homo sapiens, UniProt P40238); experiment: Proliferation effect on BAF3-TPOR cell (CCK-8); format: cell-based; details: rate relative to rhTPO positive control
# T1 construct: host or cells: BaF3 (murine pro-B cells), stably transfected, G418-selected
# T1 sequence (P40238 26-635): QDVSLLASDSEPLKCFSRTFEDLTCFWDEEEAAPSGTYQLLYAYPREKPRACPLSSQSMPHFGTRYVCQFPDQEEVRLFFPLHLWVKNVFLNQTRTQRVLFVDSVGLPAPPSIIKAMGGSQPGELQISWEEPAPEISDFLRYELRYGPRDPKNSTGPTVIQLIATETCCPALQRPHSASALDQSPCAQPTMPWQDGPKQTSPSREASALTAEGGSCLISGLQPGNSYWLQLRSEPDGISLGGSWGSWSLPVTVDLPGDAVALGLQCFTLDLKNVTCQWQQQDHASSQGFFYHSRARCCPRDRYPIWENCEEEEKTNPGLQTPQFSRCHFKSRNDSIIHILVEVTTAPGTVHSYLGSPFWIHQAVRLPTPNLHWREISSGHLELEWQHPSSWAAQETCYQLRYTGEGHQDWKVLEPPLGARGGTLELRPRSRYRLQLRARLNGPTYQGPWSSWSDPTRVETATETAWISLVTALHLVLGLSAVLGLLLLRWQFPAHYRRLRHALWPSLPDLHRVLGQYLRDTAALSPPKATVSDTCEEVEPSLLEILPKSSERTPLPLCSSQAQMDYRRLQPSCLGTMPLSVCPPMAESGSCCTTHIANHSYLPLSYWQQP
# Summary of the method: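 BaF3 cells stably expressing dual-site-mutated human TPOR were washed free of IL-3 and plated at 100,000 cells/mL with test solutions of 0.001–30 μM, then incubated 24 h at 37 °C. After a further 24 h with CCK-8, OD450 was read. Proliferation = (S−B)/(P−B) against a rhTPO control, fitted for EC50.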
# [2] = Solubility assay in water, 0.1% hydrochloric acid and methanol; format: physicochemical; details: read-out: solubility
# Summary of the method: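 Solubility was classed by the solvent volume needed to dissolve 1 g (mL) of solute, from "very soluble" (<1 mL) to "practically insoluble" (not fully dissolved in 10000 mL).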
# [3] = 0.1% hydrochloric acid, simulated gastric fluid, 0.1% hydrochloric acid
smiles,measurement,setting,value
"CC1=NN(c2ccc3c(c2)CCCC3)C(=O)/C1=N\Nc1cccc(-c2ccc(C(=O)O)o2)c1O [Example 12, (Z)-5-(2-hydroxy-3-{N′-[3-methyl-5-oxo-1-(5,6,7,8-tetrahydro-naphthalen-2-yl)-1,5-dihydro-pyrazol-4-ylidene]-hydrazino}-phenyl)-furan-2-carboxylic acid bis-(trometamol)]",Percentage of weight gain,[1],2.71%
same,hygroscopicity,[1],"Hygroscopicity (the percentage of hygroscopicity weight gain is less than 15%, but not less than 2%)"
same,EC50,human TPOR,14 nM
"CC1=NN(c2ccc3c(c2)CCCC3)C(=O)/C1=N\Nc1cccc(-c2ccc(C(=O)O)o2)c1O.NCCO.NCCO [Example 7, (Z)-5-(2-hydroxy-3-{N′-[3-methyl-5-oxo-1-(5,6,7,8-tetrahydro-naphthalen-2-yl)-1,5-dihydro-pyrazol-4-ylidene]-hydrazino}-phenyl)-furan-2-carboxylic acid bis-(ethanolamine)]",solubility,[2]; [3],29 µg/mL
same,solubility,"[2]; methanol, organic solvent or mixture, methanol",22400 µg/mL
same,solubility,[2]; water,3960 µg/mL
same,Percentage of weight gain,[1],1.2%
same,hygroscopicity,[1],"Sparing hygroscopicity (the percentage of hygroscopicity weight gain is less than 2%, but not less than 0.2%)"
same,"hygroscopicity, in words",[1]; comparing to the other salts,less hydroscopic
same,EC50,human TPOR,19 nM
"CC1=NN(c2ccc3c(c2)CCCC3)C(=O)/C1=N\Nc1cccc(-c2ccc(C(=O)O)o2)c1O [Example 8, (Z)-5-(2-hydroxy-3-{N′-[3-methyl-5-oxo-1-(5,6,7,8-tetrahydro-naphthalen-2-yl)-1,5-dihydro-pyrazol-4-ylidene]-hydrazino}-phenyl)-furan-2-carboxylic acid bis-(choline)]",solubility,[2]; [3],< 1 µg/mL
same,Percentage of weight gain,[1],13.9%
same,hygroscopicity,[1],"Hygroscopicity (the percentage of hygroscopicity weight gain is less than 15%, but not less than 2%)"
same,EC50,human TPOR,4.4 nM
